Reference: patent publication US6297354A, “Pentapeptide LHRH antagonists” (Abbott Laboratories, priority 1999, dated 2001)
Where a SMILES comes first, the peptide text is derived from it. [ ]: non-standard residue; d: D form. The star is where a group is joined. Propanoyl(3-(4-F-phenyl)) = O=C(CCc1ccc(F)cc1)*; NH(2-pyrrolidin-1-ylethyl) = C1CCN(CCN*)C1; dBip = N[C@H](Cc1ccc(-c2ccccc2)cc1)C(=O)O; 1Nal = N[C@@H](Cc1cccc2ccccc12)C(=O)O; d1Nal = N[C@H](Cc1cccc2ccccc12)C(=O)O; NMeY = CN[C@@H](Cc1ccc(O)cc1)C(=O)O; Tic = O=C(O)[C@@H]1Cc2ccccc2CN1; NMeL = CN[C@@H](CC(C)C)C(=O)O; Nicotinoyl = O=C(c1cccnc1)*; Sar = CNCC(=O)O

Molecular target: T1, LH release from rat pituitary cells (Rattus norvegicus, UniProt P30969)
T1 sequence (P30969 1-327): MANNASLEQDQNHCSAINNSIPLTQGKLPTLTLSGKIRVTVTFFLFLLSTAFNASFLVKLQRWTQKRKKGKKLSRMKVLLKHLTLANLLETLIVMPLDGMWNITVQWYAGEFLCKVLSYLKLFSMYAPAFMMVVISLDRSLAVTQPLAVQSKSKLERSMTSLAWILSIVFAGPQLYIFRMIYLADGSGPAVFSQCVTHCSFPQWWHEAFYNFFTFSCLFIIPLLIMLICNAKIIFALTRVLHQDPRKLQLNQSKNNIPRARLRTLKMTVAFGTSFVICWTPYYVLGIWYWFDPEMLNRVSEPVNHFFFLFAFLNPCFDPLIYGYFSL
Experiment: in vitro inhibition of LH release from rat pituitary cells (pA2, vs agonist leuprolide)
Format: cell-based
Details: negative logarithm of antagonist concentration required to shift the response curve produced by agonist leuprolide to two-fold higher concentration
Procedure: Representative compounds of the present invention were evaluated in vitro for inhibition of LH release from rat pituitary cells (pA2). Methods for the assay procedures are described by F. Haviv, et al. J. Med. Chem., 32:2340-2344 (1989). Values of pA2 are the negative logarithms of the concentration of the particular antagonist test compound required to shift the response curve produced by the agonist leuprolide to two-fold higher concentration. Typically values of 6.0 or greater are indicative of good LHRH antagonist potency, with values of 7.0 or greater being preferred. Leuprolide LHRH agonist, disclosed and claimed in U.S. Pat. No. 4,005,063, has the structure 5-oxo-Pro1^1 -His^2 […] -Ser^4 -Tyr^5 -D-Leu^6 -Leu^7 -Arg^8 -Pro^9 -NHEt.

Which “LHRH Antagonist Activity (pA2)” value does the source give for `CC(C)C[C@H](NC(=O)[C@@H](CCCCNC(=O)c1cccnc1)NC(=O)[C@H](Cc1ccc(O)cc1)N(C)C(=O)[C@H](CO)NC(=O)[C@@H](Cc1cccc2ccccc12)NC(=O)CCc1ccc(F)cc1)C(=O)NCCN1CCCC1` [Example 1, 4-F-Phenylpropionyl-D1Nal-Ser-NMeTyr-DLys(Nic)-Leu-NH--(CH2)2 -(1-pyrrolidine)] ({Propanoyl(3-(4-F-phenyl))}-[d1Nal]S[NMeY][dK](Nicotinoyl)L-{NH(2-pyrrolidin-1-ylethyl)}) here?
Its value is 9.91.

Which “LHRH Antagonist Activity (pA2)” value does the source give for `CC(C)C[C@H](NC(=O)CNC(=O)[C@H](Cc1ccc(O)cc1)N(C)C(=O)[C@H](CO)NC(=O)[C@@H](Cc1cccc2ccccc12)NC(=O)CCc1ccc(F)cc1)C(=O)NCCN1CCCC1` [Example 2, 4-F-Phenylpropionyl-D1Nal-Ser-NMeTyr-Gly-Leu-NH--(CH2)2 -(1pyrrolidine)] ({Propanoyl(3-(4-F-phenyl))}-[d1Nal]S[NMeY]GL-{NH(2-pyrrolidin-1-ylethyl)}) here?
Its value is 9.14.

Which “LHRH Antagonist Activity (pA2)” value does the source give for `CC(C)C[C@H](NC(=O)[C@@H](CCCCNC(=O)c1cccnc1)NC(=O)CN(C)C(=O)[C@H](CO)NC(=O)[C@@H](Cc1cccc2ccccc12)NC(=O)CCc1ccc(F)cc1)C(=O)NCCN1CCCC1` [Example 3, 4-F-Phenylpropionyl-D1Nal-Ser-Sar-DLys(Nic)-Leu-NH--(CH2)2 (1-pyrrolidine)] ({Propanoyl(3-(4-F-phenyl))}-[d1Nal]S[Sar][dK](Nicotinoyl)L-{NH(2-pyrrolidin-1-ylethyl)}) here?
The value was 7.66.

With `CC(C)C[C@H](NC(=O)[C@@H](CCCCNC(=O)c1cccnc1)NC(=O)[C@H](Cc1ccc(O)cc1)N(C)C(=O)CNC(=O)[C@@H](Cc1cccc2ccccc12)NC(=O)CCc1ccc(F)cc1)C(=O)NCCN1CCCC1` [Example 6, 4-F-Phenylpropionyl-D1Nal-Gly-NMeTyr-DLys(Nic)-Leu-NH--(CH2)2 -(1-pyrrolidine)] ({Propanoyl(3-(4-F-phenyl))}-[d1Nal]G[NMeY][dK](Nicotinoyl)L-{NH(2-pyrrolidin-1-ylethyl)}) as the compound, how does the “LHRH Antagonist Activity (pA2)” value read?
Its value is 8.90.

With `CC(C)C[C@H](NC(=O)[C@@H](CCCCNC(=O)c1cccnc1)NC(=O)[C@H](Cc1ccc(O)cc1)NC(=O)[C@H](CO)NC(=O)[C@@H](Cc1cccc2ccccc12)NC(=O)CCc1ccc(F)cc1)C(=O)NCCN1CCCC1` [Example 7, 4-F-Phenylpropiopyl-D1Nal-Ser-Tyr-DLys(Nic)-Leu-NH--(CH2)2 -(1-pyrrolidine)] ({Propanoyl(3-(4-F-phenyl))}-[d1Nal]SY[dK](Nicotinoyl)L-{NH(2-pyrrolidin-1-ylethyl)}) as the compound, how does the “LHRH Antagonist Activity (pA2)” value read?
The value was 9.73.

For `CC(C)C[C@@H](C(=O)NCCN1CCCC1)N(C)C(=O)CNC(=O)[C@H](Cc1ccc(O)cc1)N(C)C(=O)[C@H](CO)NC(=O)[C@@H](Cc1cccc2ccccc12)NC(=O)CCc1ccc(F)cc1` [Example 8, 4-F-Phenylpropionyl-D1Nal-Ser-NMeTyr-Gly-NMeLeu-NH--(CH2)2 -(1Pyrrolidine)] ({Propanoyl(3-(4-F-phenyl))}-[d1Nal]S[NMeY]G[NMeL]-{NH(2-pyrrolidin-1-ylethyl)}), which “LHRH Antagonist Activity (pA2)” value is on record?
Its value is 9.00.

With `CC(C)C[C@@H](C(=O)NCCN1CCCC1)N(C)C(=O)CNC(=O)[C@H](Cc1ccc(O)cc1)N(C)C(=O)CNC(=O)[C@@H](Cc1cccc2ccccc12)NC(=O)CCc1ccc(F)cc1` [Example 9, 4-F-Phenylpropionyl-D1Nal-Gly-NMeTyr-Gly-NMeLeu-NH--(CH2)2 -(1-pyrrolidine)] ({Propanoyl(3-(4-F-phenyl))}-[d1Nal]G[NMeY]G[NMeL]-{NH(2-pyrrolidin-1-ylethyl)}) as the compound, how does the “LHRH Antagonist Activity (pA2)” value read?
Its value is 7.72.

`CC(C)C[C@H](NC(=O)[C@@H](CCCCNC(=O)c1cccnc1)NC(=O)[C@H](Cc1ccc(O)cc1)N(C)C(=O)[C@H](CO)NC(=O)[C@@H](Cc1c[nH]c2ccccc12)NC(=O)CCc1ccc(F)cc1)C(=O)NCCN1CCCC1` [Example 10, 4-F-Phenylpropionyl-DTrp-Ser-NMeTyr-DLys(Nic)-Leu-NH--(CH2)2 -(1-pyrrolidine)] ({Propanoyl(3-(4-F-phenyl))}-[dW]S[NMeY][dK](Nicotinoyl)L-{NH(2-pyrrolidin-1-ylethyl)}) was tested. Which “LHRH Antagonist Activity (pA2)” value did it give?
The value was 8.69.

With `CC(C)C[C@H](NC(=O)[C@@H](CCCCNC(=O)c1cccnc1)NC(=O)[C@H](Cc1ccc(O)cc1)N(C)C(=O)[C@H](CO)NC(=O)[C@@H](Cc1ccc(-c2ccccc2)cc1)NC(=O)CCc1ccc(F)cc1)C(=O)NCCN1CCCC1` [Example 11, 4-F-Phenylpropionyl-DBiphe-Ser-NMeTyr-DLys(Nic)-Leu-NH--(CH2)2-(1-pyrrolidine)] ({Propanoyl(3-(4-F-phenyl))}-[dBip]S[NMeY][dK](Nicotinoyl)L-{NH(2-pyrrolidin-1-ylethyl)}) as the compound, how does the “LHRH Antagonist Activity (pA2)” value read?
Its value is 7.62.

For `CC(C)C[C@H](NC(=O)[C@@H](CCCCNC(=O)c1cccnc1)NC(=O)[C@H](Cc1ccc(O)cc1)N(C)C(=O)[C@H](CO)NC(=O)[C@H](Cc1cccc2ccccc12)NC(=O)CCc1ccc(F)cc1)C(=O)NCCN1CCCC1` [Example 14, 4-F-Phenylpropionyl-1Nal-Ser-NMeTyr-DLys(Nic)-Leu-NH--(CH2)2 -(1-pyrrolidine)] ({Propanoyl(3-(4-F-phenyl))}-[1Nal]S[NMeY][dK](Nicotinoyl)L-{NH(2-pyrrolidin-1-ylethyl)}), which “LHRH Antagonist Activity (pA2)” value is on record?
Its value is 8.68.

Which “LHRH Antagonist Activity (pA2)” value does the source give for `CC(C)C[C@H](NC(=O)[C@@H](Cc1ccccc1)NC(=O)[C@H](Cc1ccc(O)cc1)N(C)C(=O)[C@H](CO)NC(=O)[C@@H](Cc1c[nH]c2ccccc12)NC(=O)CCc1ccc(F)cc1)C(=O)NCCN1CCCC1` [Example 15, 4-F-Phenylpropionyl-DTrp-Ser-NMeTyr-DPhe-Leu-NH--(CH2)2 -(1-pyrrolidine)] ({Propanoyl(3-(4-F-phenyl))}-[dW]S[NMeY][dF]L-{NH(2-pyrrolidin-1-ylethyl)}) here?
Its value is 8.59.

For `CC(C)C[C@H](NC(=O)[C@@H](CCCCNC(=O)c1cccnc1)NC(=O)[C@H](Cc1ccc(O)cc1)N(C)C(=O)[C@@H]1CCCN1C(=O)[C@@H](Cc1cccc2ccccc12)NC(=O)CCc1ccc(F)cc1)C(=O)NCCN1CCCC1` [Example 16, 4-F-Phenylpropionyl-D1Nal-Pro-NMeTyr-DLys(Nic)-Leu-NH--(CH2)2 -(1-Pyrrolidine)] ({Propanoyl(3-(4-F-phenyl))}-[d1Nal]P[NMeY][dK](Nicotinoyl)L-{NH(2-pyrrolidin-1-ylethyl)}), which “LHRH Antagonist Activity (pA2)” value is on record?
Its value is 8.71.

How did the “LHRH Antagonist Activity (pA2)” value turn out when `CC(C)C[C@H](NC(=O)[C@@H](CCCCNC(=O)c1cccnc1)NC(=O)[C@@H]1Cc2ccccc2CN1C(=O)[C@H](CO)NC(=O)[C@@H](Cc1cccc2ccccc12)NC(=O)CCc1ccc(F)cc1)C(=O)NCCN1CCCC1` [Example 17, 4-F-Phenylpropionyl-D1Nal-Ser-Tic-DLys(Nic)-Leu-NH--(CH2)2 -( 1-pyrrolidine)] ({Propanoyl(3-(4-F-phenyl))}-[d1Nal]S[Tic][dK](Nicotinoyl)L-{NH(2-pyrrolidin-1-ylethyl)}) was run?
Its value is 9.32.

With `CC(C)C[C@H](NC(=O)[C@@H](CCCCNC(=O)c1cccnc1)NC(=O)[C@H](Cc1ccc(O)cc1)N1CC[C@H](NC(=O)[C@@H](Cc2cccc3ccccc23)NC(=O)CCc2ccc(F)cc2)C1=O)C(=O)NCCN1CCCC1` [Example 19, 4-F-Phenylpropionyl-D1Nal-6,7[2-(S-3-amino-2-oxo-pyrrolidin-1-yl)-S-2-(para-hydroxyl)phenylacetyl]-DLys(Nic)-Leu-NH--(CH2)2-(1-pyrrolidine)] as the compound, how does the “LHRH Antagonist Activity (pA2)” value read?
Its value is 7.89.
